Assay results as given in patent publication US4118418A, “5-Phenenyltris (ureylene) triisophthalic acid salts” (American Cyanamid Company, priority 1977, dated 1978).
Structures can show the parent of a compound that is named as a salt.

Legend:
activated human C1 [1] = target: T1, activated human C1 (Homo sapiens, UniProt P09871); test: Intrinsic Therapeutic Index (Code 026 C1 inhibitor test versus anti-coagulant test); details: Table II
From the text: The computation of an Intrinsic Therapeutic Index (ITI) was devised to correlate the results expressed in wells, obtained in the in vitro Code 026 (C1 inhibitor) test and the in vitro anti-coagulant (AC) test into a meaningful value which would aid in the net evaluation of the activity of the compounds of this invention.
The ITI is thus a measure of the separation of anti-complement and anti-coagulant activities; the higher the numerical value the more therapeutically useful the separation of activities.

activated human C1 [2] = target: T1, activated human C1; test: Test, Code 026 (C1 inhibitor); format: biochemical; details: Table II; highest active serial dilution
From the text: (§1) An active inhibitor protects C2 from C1 and C4; (ii) Test, Code O35 (C3-C9 inhibitor) -- This test determines the ability of the late components of human complement (C3-C9) to lyse EAC l42 in the presence of appropriate dilutions of the test compound. An active inhibitor protects EAC 142 from lysis by human C3-C9; (iii) Test, Code 036 (C-Shunt inhibitor) -- In this test human erythrocytes rendered fragile are lysed in autologous serum via the shunt pathway activated by cobra venom factor in the presence of appropriate dilutions of the test compound. Inhibition of the shunt pathway results in failure of lysis; (iv) Forssman Vasculitis Test -- Here, the well known complement dependent lesion, Forssman vasculitis, is produced in guinea pigs by intradermal injection of rabbit anti-Forssman antiserum. […]

[3] = test system: shunt pathway activated by cobra venom factor; test: Test, Code 036 (C-Shunt inhibitor), lysis of human erythrocytes in autologous serum via shunt pathway; format: cell-based; details: Table I; two-fold serial dilutions
From the text: as §1

whole complement = test: Complement Level Reduction Test, whole complement in serum of dosed guinea pigs by capillary tube assay; format: in vivo; details: i.p., 200 mg/kg
From the text: An active inhibitor protects C2 from C1 and C4; (ii) Test, Code O35 (C3-C9 inhibitor) -- This test determines the ability of the late components of human complement (C3-C9) to lyse EAC l42 in the presence of appropriate dilutions of the test compound. An active inhibitor protects EAC 142 from lysis by human C3-C9; (iii) Test, Code 036 (C-Shunt inhibitor) -- In this test human erythrocytes rendered fragile are lysed in autologous serum via the shunt pathway activated by cobra venom factor in the presence of appropriate dilutions of the test compound. Inhibition of the shunt pathway results in failure of lysis; (iv) Forssman Vasculitis Test -- Here, the well known complement dependent lesion, Forssman vasculitis, is produced in guinea pigs by intradermal injection of rabbit anti-Forssman antiserum. The lesion is measured in terms of diameter, edema and hemorrhage and the extent to which a combined index of these is inhibited by prior intraperitoneal injection of the test compound at 200 mg/kg is then reported, unless otherwise stated; (v) Forssman Shock Test -- Lethal shock is produced in guinea pigs by an i.v. injection of anti-Forssman antiserum and the harmonic mean death time of treated guinea pigs is compared with that of simultaneous controls; (vi) Complement Level Reduction Test -- In this test, the above dosed guinea pigs, or others, are bled for serum and the complement level is determined in undiluted serum by the capillary tube method of U.S. Pat. No. 3,876,376 and compared to undosed control guinea pigs; and (vii) Cap 50 Test -- Here, appropriate amounts of the test compound are added to a pool of guinea pig serum in vitro, after which the undiluted serum capillary tube assay referred to above is run. The concentration of compound inhibiting 50% is reported.
With reference to Table I, guinea pigs weighing about 300 g were dosed intravenously (i.v.) or intraperitoneally (i.p.) with 200 mg/kg of the test compound dissolved in saline and adjusted to pH 7-8. […] Percent inhibition was calculated by comparison with simultaneous controls. […]

Citrated sheep plasma = test: in vitro anti-coagulant activity (AC), clotting of recalcified citrated sheep plasma; format: biochemical
Method: The sheep RBC's, kept in suspension throughout the clotting incubation time, become enmeshed in the fibrin matrix if a clot forms. Upon centrifugation of the plate, untrapped RBC's form buttons, the sizes of which correspond to the degree of clot inhibition; this providing a measure of anti-coagulant activity (AC). Sodium heparin is used as a positive control and activity is reported in wells appearing in Table I.
**Activity in wells a serial dilution assay. Higher well number indicates
higher activity. The serial dilutions are two-fold.

complement system = details: literature; cited from earlier work
[4] = test system: hereditary angioneurotic edema; details: New England Journal of Medicine, 286, 808-812 (1972); cited from earlier work
[5] = test system: human serum total hemolytic complement; details: in vitro and in vivo, reduction in total hemolytic complement activity; Pathologie Biologie, 25, 33-36 (1977); cited from earlier work

T1 sequence (P09871 16-688): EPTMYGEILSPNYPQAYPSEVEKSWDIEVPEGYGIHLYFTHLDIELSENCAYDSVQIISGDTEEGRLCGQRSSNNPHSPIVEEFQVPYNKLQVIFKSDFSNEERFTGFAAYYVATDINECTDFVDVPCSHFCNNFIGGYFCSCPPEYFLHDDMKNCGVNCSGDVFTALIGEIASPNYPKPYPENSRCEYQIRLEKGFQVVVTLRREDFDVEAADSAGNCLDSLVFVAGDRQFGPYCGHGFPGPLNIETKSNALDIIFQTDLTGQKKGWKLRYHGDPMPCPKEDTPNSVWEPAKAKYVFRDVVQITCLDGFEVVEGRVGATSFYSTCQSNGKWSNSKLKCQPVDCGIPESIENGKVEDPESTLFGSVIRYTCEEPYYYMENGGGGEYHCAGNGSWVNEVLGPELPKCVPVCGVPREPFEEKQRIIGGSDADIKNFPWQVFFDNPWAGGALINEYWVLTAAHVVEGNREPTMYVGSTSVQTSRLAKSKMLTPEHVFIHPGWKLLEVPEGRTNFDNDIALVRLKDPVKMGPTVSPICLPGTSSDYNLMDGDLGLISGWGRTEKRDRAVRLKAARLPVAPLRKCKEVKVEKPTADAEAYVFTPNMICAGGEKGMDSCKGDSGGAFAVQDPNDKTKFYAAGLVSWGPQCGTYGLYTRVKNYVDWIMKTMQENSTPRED
T1 sequence (P00736 18-705 partner): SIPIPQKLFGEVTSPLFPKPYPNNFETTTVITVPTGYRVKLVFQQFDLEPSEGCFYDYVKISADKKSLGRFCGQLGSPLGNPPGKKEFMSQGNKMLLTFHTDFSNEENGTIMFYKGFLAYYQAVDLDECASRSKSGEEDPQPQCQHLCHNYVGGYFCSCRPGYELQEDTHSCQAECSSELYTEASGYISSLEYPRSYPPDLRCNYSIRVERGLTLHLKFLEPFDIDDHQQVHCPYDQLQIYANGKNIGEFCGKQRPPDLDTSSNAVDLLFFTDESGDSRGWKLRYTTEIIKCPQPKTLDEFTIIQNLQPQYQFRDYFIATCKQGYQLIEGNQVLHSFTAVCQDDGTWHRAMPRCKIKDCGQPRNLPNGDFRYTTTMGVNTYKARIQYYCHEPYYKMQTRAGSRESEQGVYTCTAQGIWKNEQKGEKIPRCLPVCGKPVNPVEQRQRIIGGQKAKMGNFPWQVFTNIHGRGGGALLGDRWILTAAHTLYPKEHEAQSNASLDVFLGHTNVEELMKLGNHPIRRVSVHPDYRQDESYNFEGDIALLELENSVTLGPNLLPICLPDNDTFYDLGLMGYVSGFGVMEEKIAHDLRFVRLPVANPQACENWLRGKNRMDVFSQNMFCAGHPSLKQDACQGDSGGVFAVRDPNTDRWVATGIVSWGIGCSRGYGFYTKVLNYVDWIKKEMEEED
T1 sequence (P02745 23-245 partner): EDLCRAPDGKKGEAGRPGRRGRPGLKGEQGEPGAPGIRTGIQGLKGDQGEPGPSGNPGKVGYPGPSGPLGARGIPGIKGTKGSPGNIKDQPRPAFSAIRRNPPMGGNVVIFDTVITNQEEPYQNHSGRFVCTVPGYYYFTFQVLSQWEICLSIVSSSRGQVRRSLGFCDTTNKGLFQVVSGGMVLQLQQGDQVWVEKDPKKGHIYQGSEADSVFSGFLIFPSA
T1 sequence (P02746 28-253 partner): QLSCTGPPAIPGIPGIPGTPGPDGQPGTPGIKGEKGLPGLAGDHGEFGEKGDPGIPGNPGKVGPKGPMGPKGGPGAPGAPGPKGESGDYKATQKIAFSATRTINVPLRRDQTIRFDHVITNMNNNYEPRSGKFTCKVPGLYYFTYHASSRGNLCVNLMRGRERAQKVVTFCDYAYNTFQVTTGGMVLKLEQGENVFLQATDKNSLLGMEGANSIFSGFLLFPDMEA
T1 sequence (P02747 29-245 partner): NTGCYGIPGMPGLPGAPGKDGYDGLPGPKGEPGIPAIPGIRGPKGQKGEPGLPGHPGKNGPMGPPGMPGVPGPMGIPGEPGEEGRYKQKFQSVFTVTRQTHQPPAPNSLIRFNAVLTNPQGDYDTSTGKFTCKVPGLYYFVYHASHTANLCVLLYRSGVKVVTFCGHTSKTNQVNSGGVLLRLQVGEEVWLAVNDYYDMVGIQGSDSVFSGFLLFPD

O=C(Nc1cc(NC(=O)Nc2cc(C(=O)O)cc(C(=O)O)c2)cc(NC(=O)Nc2cc(C(=O)O)cc(C(=O)O)c2)c1)Nc1cc(C(=O)O)cc(C(=O)O)c1 [5,5',5"-(s-Phenenyltriureylene)triisophthalic acid hexasodium salt]
Intrinsic Therapeutic Index (activated human C1 [1]; antilogarithm (base 2) of the difference in wells): 256 | Logarithmic Difference Expressed as Wells (activated human C1 [1]; log (base 2) difference Code 026 minus AC): +8 Wells | In Vitro Activity, Complement Inhibiting Activity (Wells) Code 026 (activated human C1 [2]): +6 Wells | Shunt Inhibition 036 Wells [3]: +1 Wells | In Vivo Activity (Guinea Pig) % Inhibition, Intraperitoneal, 30 mins. (whole complement; 30 mins.): -43% | In Vivo Activity (Guinea Pig) % Inhibition, Intraperitoneal, 60 mins. (whole complement; 60 mins.): -9% | In Vivo Activity (Guinea Pig) % Inhibition, Intraperitoneal, 120 mins. (whole complement; 120 mins.): -41% | AC Wells (Citrated sheep plasma; Table I, anti-coagulant activity, two-fold serial dilutions): < -2 Wells | In Vitro Activity, Anti-Coagulant Activity (Wells) AC (Citrated sheep plasma; Table II, highest active serial dilution): -2 Wells

Cc1ccc(C(=O)Nc2ccc(S(=O)(=O)O)c3cc(S(=O)(=O)O)cc(S(=O)(=O)O)c23)cc1NC(=O)c1cccc(NC(=O)Nc2cccc(C(=O)Nc3cc(C(=O)Nc4ccc(S(=O)(=O)O)c5cc(S(=O)(=O)O)cc(S(=O)(=O)O)c45)ccc3C)c2)c1 [Suramin]
anticomplementary effect / complement inhibition (complement system): competitive inhibitor of the complement system | use in treatment of hereditary angioneurotic edema [4]: used with success

Nc1ccc2cc(S(=O)(=O)O)cc(O)c2c1N=Nc1ccc(NC(=O)Nc2ccc(N=Nc3c(N)ccc4cc(S(=O)(=O)O)cc(O)c34)c(S(=O)(=O)O)c2)cc1S(=O)(=O)O [chlorazol fast pink, 3,3'-ureylenebis-[6-(2-amino-8-hydroxy-6-sulfo-1-naphthylazo)]benzenesulfonic acid, tetrasodium salt]
anticomplementary effect / complement inhibition (complement system): anticomplementary effect

NCCCCCC(=O)O [epsilon-aminocaproic acid]
use in treatment of hereditary angioneurotic edema [4]: used with success

NC[C@H]1CC[C@H](C(=O)O)CC1 [tranexamic acid]
use in treatment of hereditary angioneurotic edema [4]: used with success

heparin
anticomplementary effect / complement inhibition (complement system): anticomplementary effect

pentosan-poly-sulfoester
anticomplementary activity on human serum [5]: anticomplementary activity on human serum both in vitro and in vivo
